Where two headings read alike, the source gives them in different places.
Experiments:
[1] = tested on: peripheral NK cells; conditions: mice; Shimaoka et al. 2017; cited from earlier work
[2] = tested on: NK92 NK cell line; experiment: Intracellular granzyme B and perforin levels in NK cells by flow cytometry; assay type: cell-based
Procedure: (§1) FIG. 3A-E: Tofacitinib reduces NK cell activity and cytotoxicity. (A) NK cells (NK92 cell line) were treated with tofacitinib either after 30 ng/ml of IL-15 activation overnight (ON) or before IL-15 activation (2-hours) to test its efficacy in inhibiting already activated NK cells (overnight stimulation) or preventing their activation (2-hour stimulation). (B) NK cells cultured Overnight or 2 Hrs with IL-15 were lysed and cytokine expression assessed using qPCR. IL-10, TNF-α, and IFN-γ gene expression was assessed. (C) Intracellular granzyme B and perforin were levels were assessed in NK cells in vitro using flow cytometry. Fluorescent intensity was plotted for unstimulated NK cells in serum free conditions (negative control; blue), serum-stimulated NK cells (positive control; red), IL-15 stimulated NK cells (30 ng/ml IL-15; orange), or tofacitinib treated NK cells (30 ng/ml IL-15+ tofacitinib; green). (D) NK cell migration was assessed using a transwell assay. NK92 cells were fluorescently labeled and placed on one side of a well separated by a porous membrane. A chemoattractant (serum or CCL13) was placed on the other side of the transwell and after 3 hours the fluorescent intensity in the chemoattractant half of the well was assessed. (E) NK cytotoxicity was measured using a K562 co-culture assay. […] Cells were then stained with a viability dye and analyzed using flow cytometry. […]

[3] = tested on: NK92 NK cells; experiment: NK cell migration transwell assay; assay type: cell-based; conditions: IL-15 stimulated NK92 cells, 3 hours
Procedure: as §1, with “Fluorescent intensity was plotted for unstimulated NK cells in serum free conditions (negative control; blue), serum-stimulated NK cells (positive control; red), IL-15 stimulated NK cells (30 ng/ml IL-15; orange), or tofacitinib treated NK cells (30 ng/ml IL-15+ tofacitinib; green).” left out, “NK92 cells were fluorescently labeled and placed on one side of a well separated by a porous membrane.” left out
(§2) Experiments were conducted to assess the impact on NK cell migration following tofacitinib treatment (FIG. 3D). […] NK cell chemoattractants (serum or CCL13) were then placed in the other half of the well and the number of NK cells which traversed the membrane were measured. […] Cells were collected, stained with a viability dye, and analyzed using flow cytometry. […]

[4] = tested on: NK92 NK cells co-cultured with K562 cancer cells; experiment: NK cytotoxicity K562 co-culture assay; assay type: cell-based; conditions: 4:1 NK:K562 ratio overnight; even following overnight IL-15 stimulation
Procedure: as §1, with “Fluorescent intensity was plotted for unstimulated NK cells in serum free conditions (negative control; blue), serum-stimulated NK cells (positive control; red), IL-15 stimulated NK cells (30 ng/ml IL-15; orange), or tofacitinib treated NK cells (30 ng/ml IL-15+ tofacitinib; green).” left out, “NK92 cells were fluorescently labeled and placed on one side of a well separated by a porous membrane.” left out
as §2

[5] = tested on: NK92 NK cell line; experiment: Cytokine gene expression by qPCR in IL-15 stimulated NK92 cells; assay type: cell-based; conditions: 30 ng/ml IL-15, tofacitinib treatment (Overnight IL-15) or pre-treatment (2 Hr IL-15)
Procedure: as §1, with “Fluorescent intensity was plotted for unstimulated NK cells in serum free conditions (negative control; blue), serum-stimulated NK cells (positive control; red), IL-15 stimulated NK cells (30 ng/ml IL-15; orange), or tofacitinib treated NK cells (30 ng/ml IL-15+ tofacitinib; green).” left out, “NK92 cells were fluorescently labeled and placed on one side of a well separated by a porous membrane.” left out
To test this possibility, experiments were conducted that utilized the well-characterized NK92 NK cell line to assess tofacitinib's impact on NK cell activation and cytotoxicity in vitro. […] First, NK cells from these two conditions were collected, lysed, and cytokine expression gene expression was assessed using qPCR (FIG. 3B).

[6] = tested on: peripheral NK cells; conditions: human patients; van Vollenhoven et al. 2019, van Gurp et al. 2008; cited from earlier work
[7] = tested on: NK cells, CD4 T cells; conditions: cited from earlier work

## C[C@@H]1CCN(C(=O)CC#N)C[C@@H]1N(C)c1ncnc2[nH]ccc12 [tofacitinib]
[1]
  peripheral NK cells: capable of reducing
[2]; NK cells stimulated with IL-15, particularly when treated with tofacitinib prior to IL-15 stimulation
  intracellular perforin levels: reduced
[2]; NK cells stimulated with IL-15 overnight or for two hours, flow cytometry
  intracellular granzyme B levels: modest effect
[3]; CCL13 as chemoattractant
  NK cell migration in response to CCL13: more robust suppression
[3]; serum as chemoattractant
  NK cell migration in response to serum: modest reduction
[4]
  NK cell-mediated killing (K562 survival): ameliorated
[5]
  IFN-γ gene expression: significantly reduced
  IL-10 gene expression: significantly reduced
[6]
  peripheral NK cells: capable of reducing
[7]; Hodge et al. 2016, van Gurp et al. 2008
  NK cell levels: reduced in a dose dependent manner
[7]; van Gurp et al. 2008
  CD4 T cell levels: maintaining
